Data published in US20220317138A1, “METHODS FOR DETERMINING THE CONCENTRATION OF A CARBAPENEM ANTIBIOTIC IN A BIOLOGICAL SAMPLE” (priority 2019, published 2022).
Like-named read-outs stand apart in the source and are kept apart here.

Assays:
[1] = target: CTXM15 beta-lactamase (class A) (Escherichia coli, UniProt Q9EXV5); format: biochemical; conditions: nitrocefin reporter
[2] = test system: Per2 beta-lactamase (class A); experiment: Screening of beta-lactamases by competition, nitrocefin as reporter substrate; format: biochemical
[3] = test system: AmpCHD beta-lactamase (class C); experiment: as above; format: biochemical
[4] = target: P99 beta-lactamase (class C) (Enterobacter cloacae, UniProt P05364); format: biochemical; conditions: nitrocefin reporter
Chain of P99 beta-lactamase (class C) (P05364 21-381): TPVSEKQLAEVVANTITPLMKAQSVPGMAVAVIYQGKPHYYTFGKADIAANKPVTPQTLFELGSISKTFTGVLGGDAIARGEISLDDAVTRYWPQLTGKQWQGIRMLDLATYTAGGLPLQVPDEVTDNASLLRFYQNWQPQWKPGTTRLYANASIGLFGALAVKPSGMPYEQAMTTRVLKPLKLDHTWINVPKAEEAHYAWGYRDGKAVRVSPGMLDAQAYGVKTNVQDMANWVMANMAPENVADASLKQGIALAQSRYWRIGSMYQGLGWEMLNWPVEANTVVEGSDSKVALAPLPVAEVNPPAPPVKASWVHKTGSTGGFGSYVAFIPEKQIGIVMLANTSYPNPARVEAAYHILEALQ

[5] = target: Oxa48 beta-lactamase (class D) (Klebsiella pneumoniae, UniProt Q6XEC0); format: biochemical; conditions: nitrocefin reporter
Chain of Oxa48 beta-lactamase (class D) (Q6XEC0 23-265 limits assumed): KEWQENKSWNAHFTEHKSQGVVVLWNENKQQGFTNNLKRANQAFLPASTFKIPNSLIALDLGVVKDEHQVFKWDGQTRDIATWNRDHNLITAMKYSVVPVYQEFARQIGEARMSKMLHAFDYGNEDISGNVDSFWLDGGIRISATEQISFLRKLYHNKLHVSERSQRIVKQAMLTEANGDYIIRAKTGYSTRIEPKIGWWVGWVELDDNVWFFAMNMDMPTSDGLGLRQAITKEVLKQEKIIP

[6] = target: T1, beta-lactamase class D OXA-48 (Klebsiella pneumoniae, UniProt Q6XEC0); format: biochemical; conditions: for Accuracy <> (average) / [Meropenem] <> (average): average of 5 replicates
T1 sequence (Q6XEC0 23-265 limits assumed): as above
Description: The specificity (or selectivity) of the method according to an embodiment of the invention is defined as the ability of the method to measure the concentration of a carbapenem antibiotic (such as meropenem) in presence of an excess of another beta-lactam antibiotic (second beta-lactam) currently used in ICUs (see Table 4).
To determine the specificity of the method illustrating the invention for carbapenem antibiotics, in particular meropenem, versus other beta-lactam antibiotics, stock-solutions of second beta-lactam antibiotics were prepared in water.
An excess of a second beta-lactam concentration of up to 10 times the concentration of meropenem was used.

[7] = target: BlaP beta-lactamase (class A) (Bacillus licheniformis, UniProt P00808); format: biochemical; conditions: nitrocefin reporter
Chain of BlaP beta-lactamase (class A) (P00808 27-307 limits assumed): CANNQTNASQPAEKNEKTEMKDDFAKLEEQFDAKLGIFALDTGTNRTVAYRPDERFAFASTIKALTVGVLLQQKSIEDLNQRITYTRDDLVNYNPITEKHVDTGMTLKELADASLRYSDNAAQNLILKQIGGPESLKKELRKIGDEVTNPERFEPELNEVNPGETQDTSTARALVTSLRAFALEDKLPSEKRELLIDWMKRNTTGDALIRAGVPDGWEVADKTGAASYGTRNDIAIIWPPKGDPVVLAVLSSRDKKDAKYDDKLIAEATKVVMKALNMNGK

[8] = target: Kpc2 beta-lactamase (class A) (Klebsiella pneumoniae, UniProt Q9F663); format: biochemical; conditions: nitrocefin reporter
[9] = target: Imp1 beta-lactamase (class B) (Serratia marcescens, UniProt P52699); format: biochemical; conditions: nitrocefin reporter
Chain of Imp1 beta-lactamase (class B) (P52699 19-246 limits assumed): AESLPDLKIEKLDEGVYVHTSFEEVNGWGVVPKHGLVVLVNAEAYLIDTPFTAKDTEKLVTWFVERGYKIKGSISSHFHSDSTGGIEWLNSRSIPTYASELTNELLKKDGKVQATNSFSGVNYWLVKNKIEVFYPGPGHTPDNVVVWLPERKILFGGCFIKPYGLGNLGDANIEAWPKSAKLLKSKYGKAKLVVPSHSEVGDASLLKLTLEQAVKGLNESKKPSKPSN

[10] = test system: Imp4 beta-lactamase (class B); experiment: Screening of beta-lactamases by competition, nitrocefin as reporter substrate; format: biochemical
[11] = target: T1, beta-lactamase class D OXA-48; format: biochemical; conditions: OXA-48, nitrocefin, 482 nm
[12] = target: OXA-48 (Klebsiella pneumoniae, UniProt Q6XEC0); conditions: OXA-48, for meropenem; cited from earlier work
Chain of OXA-48 (Q6XEC0 23-265 limits assumed): as the sequence (Q6XEC0 23-265 limits assumed) above

[13] = test system: OXA-163; conditions: OXA-163, for meropenem; cited from earlier work
[14] = target: Ndm1 beta-lactamase (class B) (Klebsiella pneumoniae, UniProt C7C422); format: biochemical; conditions: nitrocefin reporter
[15] = Activity loss of the beta-lactamase in 1 h; format: physicochemical; conditions: enzyme activity
[16] = Meropenem 1.2 mg/L, second β-lactam 10.0 mg/L (8.4 times excess)
[17] = Meropenem 20.0 mg/L, second β-lactam 200.0 mg/L (10 times excess)

Chain of CTXM15 beta-lactamase (class A) (Q9EXV5 29-291 limits assumed): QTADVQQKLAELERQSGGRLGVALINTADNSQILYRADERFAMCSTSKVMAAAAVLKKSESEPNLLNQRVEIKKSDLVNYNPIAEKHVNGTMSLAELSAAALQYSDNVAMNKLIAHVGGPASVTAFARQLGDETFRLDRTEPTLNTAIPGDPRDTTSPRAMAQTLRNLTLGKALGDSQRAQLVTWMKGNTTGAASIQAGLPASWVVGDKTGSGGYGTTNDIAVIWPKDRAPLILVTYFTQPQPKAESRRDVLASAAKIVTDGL

Molecule	hydrolysis rate symbol, (Vmax/V0)-1 [3]	hydrolysis rate symbol, (Vmax/V0)-1 [4]	Accuracy <> (average) [6, 16]	[Meropenem] <> (average) [6, 16]	Accuracy Replicate 1 [6, 16]	[Meropenem] Replicate 1 [6, 16]	Accuracy Replicate 2 [6, 16]	[Meropenem] Replicate 2 [6, 16]	Accuracy Replicate 3 [6, 16]	[Meropenem] Replicate 3 [6, 16]	Accuracy Replicate 4 [6, 16]	[Meropenem] Replicate 4 [6, 16]	Accuracy Replicate 5 [6, 16]	[Meropenem] Replicate 5 [6, 16]	Accuracy <> (average) [6, 17]	[Meropenem] <> (average) [6, 17]	Accuracy Replicate 1 [6, 17]	[Meropenem] Replicate 1 [6, 17]	Accuracy Replicate 2 [6, 17]	[Meropenem] Replicate 2 [6, 17]	other results
CC1(C)S[C@@H]2[C@H](NC(=O)[C@H](C(=O)O)c3ccsc3)C(=O)N2[C@H]1C(=O)O [Ticarpen ®]	+ (0.1-1)	++++ (>100)	112%	1.3 mg/L	121%	1.4 mg/L	122%	1.4 mg/L	102%	1.2 mg/L	111%	1.3 mg/L	105%	1.2 mg/L	101%	22.6 mg/L	102%	22.7 mg/L	105%	23.4 mg/L	hydrolysis rate symbol, (Vmax/V0)-1 [1]: ++ (1-10); hydrolysis rate symbol, (Vmax/V0)-1 [2]: ++ (1-10); hydrolysis rate symbol, (Vmax/V0)-1 [5]: + (0.1-1); Accuracy Replicate 3 [6, 17]: 104%; [Meropenem] Replicate 3 [6, 17]: 23.1 mg/L; Accuracy Replicate 4 [6, 17]: 98%; [Meropenem] Replicate 4 [6, 17]: 21.9 mg/L; Accuracy Replicate 5 [6, 17]: 98%; [Meropenem] Replicate 5 [6, 17]: 21.9 mg/L
C[C@@H](O)[C@H]1C(=O)N2C(C(=O)O)=C(S[C@@H]3CN[C@H](C(=O)N(C)C)C3)[C@H](C)[C@H]12 [Meropenem, meropenem]	+ (0.1-1)	+++ (10-100)	100%	1.2 mg/L	98%	1.1 mg/L	100%	1.2 mg/L	97%	1.1 mg/L	108%	1.3 mg/L	97%	1.1 mg/L	100%	20.2 mg/L	103%	20.7 mg/L	104%	20.9 mg/L	hydrolysis rate symbol, (Vmax/V0)-1 [7]: + (0.1-1); hydrolysis rate symbol, (Vmax/V0)-1 [1]: +++ (10-100); hydrolysis rate symbol, (Vmax/V0)-1 [8]: + (0.1-1); hydrolysis rate symbol, (Vmax/V0)-1 [9]: + (0.1-1); hydrolysis rate symbol, (Vmax/V0)-1 [10]: + (0.1-1); hydrolysis rate symbol, (Vmax/V0)-1 [5]: +++ (10-100); lower limit of quantification (LLOQ) [11]: 0.5 mg/L; upper limit of quantification (ULOQ) [11]: 20 mg/L; Accuracy Replicate 3 [6, 17]: 98%; [Meropenem] Replicate 3 [6, 17]: 19.8 mg/L; Accuracy Replicate 4 [6, 17]: 98%; [Meropenem] Replicate 4 [6, 17]: 19.9 mg/L; Accuracy Replicate 5 [6, 17]: 97%; [Meropenem] Replicate 5 [6, 17]: 19.6 mg/L; Km [12]: 200 µM; Km [13]: 2200 µM
Cn1nnnc1SCC1=C(C(=O)O)N2C(=O)[C@@H](NC(=O)[C@H](O)c3ccccc3)[C@H]2SC1 [Cefamandole ®, Cefamandole]	++ (1-10)	++ (1-10)	115%	1.3 mg/L	112%	1.3 mg/L	116%	1.3 mg/L	114%	1.3 mg/L	123%	1.4 mg/L	112%	1.3 mg/L	99%	22.0 mg/L	97%	21.5 mg/L	98%	21.9 mg/L	hydrolysis rate symbol, (Vmax/V0)-1 [2]: + (0.1-1); hydrolysis rate symbol, (Vmax/V0)-1 [9]: ++ (1-10); hydrolysis rate symbol, (Vmax/V0)-1 [10]: ++ (1-10); hydrolysis rate symbol, (Vmax/V0)-1 [14]: + (0.1-1); Accuracy Replicate 3 [6, 17]: 99%; [Meropenem] Replicate 3 [6, 17]: 22.2 mg/L; Accuracy Replicate 4 [6, 17]: 105%; [Meropenem] Replicate 4 [6, 17]: 23.4 mg/L; Accuracy Replicate 5 [6, 17]: 94%; [Meropenem] Replicate 5 [6, 17]: 21.0 mg/L
Kpc2: class A beta-lactamase screened (protein, UniProt Q9F663 25-293, looked up) Carbapenem-hydrolyzing …: LTNLVAEPFAKLEQDFGGSIGVYAMDTGSGATVSYRAEERFPLCSSFKGFLAAAVLARSQQQAGLLDTPIRYGKNALVPWSPISEKYLTTGMTVAELSAAAVQYSDNAAANLLLKELGGPAGLTAFMRSIGDTTFRLDRWELELNSAIPGDARDTSSPRAVTESLQKLTLGSALAAPQRQQFVDWLKGNTTGNHRIRAAVPADWAVGDKTGTCGVYGTANDYAVVWPTGRAPIVLAVYTRAPNKDDKHSEAVIAAAARLALEGLGVNGQ	–	–	–	–	–	–	–	–	–	–	–	–	–	–	–	–	–	–	–	–	Activity loss in 1 h [15]: 2%
Ndm1: class B beta-lactamase screened (protein, UniProt C7C422 29-270, looked up) Metallo-beta-lactamase type 2: GEIRPTIGQQMETGDQRFGDLVFRQLAPNVWQHTSYLDMPGFGAVASNGLIVRDGGRVLVVDTAWTDDQTAQILNWIKQEINLPVALAVVTHAHQDKMGGMDALHAAGIATYANALSNQLAPQEGMVAAQHSLTFAANGWVEPATAPNFGPLKVFYPGPGHTSDNITVGIDGTDIAFGGCLIKDSKAKSLGNLGDADTEHYAASARAFGAAFPKASMIVMSHSAPDSRAAITHTARMADKLR	–	–	–	–	–	–	–	–	–	–	–	–	–	–	–	–	–	–	–	–	Activity loss in 1 h [15]: 0%
